The target in assay [1] is Inosine monophosphate dehydrogenase (IMPDH). Nature of the assay: Inosine monophosphate dehydrogenase (IMPDH) inhibition test. In kind it is biochemical. As to conditions: IMPDH enzyme solution from MDCK cell homogenate, 37° C., 1 hour; read-out: 50% inhibition concentration. On the procedure: MDCK cells monolayer-cultured on a culture plate were suspended in 0.05 M Tris-HCl (pH 8.0), and the suspension was homogenated with a Downs homogenizer to obtain a cell homogenate. The cell homogenate was centrifuged at 16000×g, and the thus obtained supernatant was used as an IMPDH enzyme solution.
As reaction compositions, 0.1 M Tris-HCl (pH 8.0), 0.1 M KCl, 30 mM EDTA, 5 mM NAD, 5 mg/mL bovine serum albumin, and 0.04 mM [8-^14C]-inosine 5′-monophosphate were used. After completion of reaction at 37° C. for 1 hour, 2 volumes of acetonitrile were added to terminate the reaction, and the reaction product was concentrated. The obtained concentrate was analyzed under the HPLC conditions indicated below. The ratio between the reaction substrate ([^14C]-inosine 5′-monophosphate) and the reaction product ([^14C]-xanthosine 5′-monophosphate) was obtained, and the reaction rate was calculated. Ribavirin monophosphate was used as a control compound.

The subject of assay [2] is bovine diarrhea virus (BVDV) NADL. As to the kind of experiment: Anti-BVDV effect (plaque inhibition in MDBK cells). The assay is classed as cell-based. Particulars: Bovine viral diarrhea virus isolates and strains, 72 h, 100 μg/mL test compound, 70 PFU/well, 3 days, read-out: Inhibition rate (plaque inhibition rate). On the procedure:
MDBK cells that had fully grown in a 6-well culture plate were infected with bovine diarrhea virus (BVDV) NADL at 70 PFU/well. After 60 minutes, the infection solution was removed, and a test culture solution (E′-MEM) containing 5% horse serum and 1% agar (SeaPlaque Agar) that contained a 100 μg/mL test compound was added thereto. The mixture was fully solidified and then cultured for 3 days under conditions of 37° C., a humidity of 100% and 5% CO2. After completion of the culture, the test plate was fixed with a 3% formaldehyde solution, and the agar medium was removed with running water, followed by staining with a 1% crystal violet solution, so as to count the number of plaques. The plaque inhibition rate was expressed by the percentage obtained by comparing with a control to which no test compounds were added.

Assay [3] relates to influenza virus A/PR/8/34. As to the kind of experiment: Anti-influenza effect (plaque inhibition in MDCK cells). As to conditions: PR/8, MDCK, 72 h, read-out: Inhibition rate (plaque inhibition rate). In kind it is cell-based.
The target in assay [4] is T1, Influenza virus polymerase (crude enzyme from virus particles) (Influenza A virus, UniProt P03431).
T1 construct: these particles were used as polymerase crude enzymes; from tissue; host or cells: influenza virus particles lysed with Triton N101/LPC (crude enzyme)
Nature of the assay: Polymerase inhibition test (influenza virus). The assay is classed as biochemical. Particulars: 30° C., 60 minutes, 32P-GTP incorporation, read-out: 50% inhibition concentration. On the procedure:
Influenza virus particles were treated with a dissolving solution (100 mM Tris-HCl (pH 8), 100 mM KCl, 5 mM MgCl2, 1.5 mM DTT, 5% glycerol, 1.5% Triton N101, 1% LPC), and these particles were used as polymerase crude enzymes. Each of the test compounds with different concentrations was added to a reaction buffer (100 mM Tris-HCl (pH 8.0), 100 mM KCl, 5 mM MgCl2, 1 mM DTT, 0.25% Triton N101, 0.25 mM ApG, 0.1 mM ATP, 0.05 mM CTP, 0.05 mM UTP, 0.0005 mM GTP, ^32P-GTP, crude enzyme), followed by incubation at 30° C. for 60 minutes. Thereafter, 10% trichloroacetic acid (TCA) was added thereto, and the mixture was retained on ice for 60 minutes. Thereafter, it was dropped on a GF/C filter, and the filter was then washed with 5% TCA. The filter was dried, and scintillation cocktail was added thereto. The radioactivity was determined using a liquid scintillation counter. The measurement value was given as a 50% inhibition concentration, providing that a group in which no test compounds were added was defined as 100%.

Assay [5] has as its target T2, HCV polymerase (NS5B region of hepatitis C virus) (Hepatitis C virus genotype 1a, UniProt P27958).
T2 construct: The NS5B region of hepatitis C virus was produced in Escherichia coli; made in house; host or cells: Escherichia coli
As to the kind of experiment: Polymerase inhibition test (hepatitis C virus). In kind it is biochemical. On the procedure:
The NS5B region of hepatitis C virus was produced in Escherichia coli, and it was used as HCV polymerase for the test. The sequence of the 3′-region of HCV was prepared by the in vitro transcription method, and it was used as an RNA template for the test.
Each of the test compounds with different concentrations was added to a reaction buffer (20 mM Tris-HCl (pH 8.0), 0.05 mM MnCl2, 1 mM DTT, 20 units RNase inhibitor, [α-^32P]GTP, 0.05 mM each of ATP, CTP and UTP, and 2 μg/mL RNA template), followed by incubation at 30° C. for 2 hours. Thereafter, 10% TCA was added to terminate the reaction. Thereafter, the reaction solution was dropped on a DE81 filter, and the filter was then washed with 5% TCA. The filter was dried, and scintillation cocktail was added thereto. The radioactivity was determined using a liquid scintillation counter. The measurement value was given as a 50% inhibition concentration, providing that a group in which no test compounds were added was defined as 100%.

Assay [6] has as its target human RNA polymerase (Hela cell nucleus extract) (Homo sapiens, UniProt P24928+P30876). Nature of the assay: Human RNA polymerase inhibition test. The assay is classed as biochemical. Particulars: 30° C., 1 hour, read-out: 50% inhibition concentration. On the procedure:
A Hela cell nucleus extract (Promega) was used as human RNA polymerase for the test. The pCMP script was cleaved with restriction enzymes and then purified, and it was used as a DNA template for the test.
Each of the test compounds with different concentrations was added to a reaction buffer (Hela cell nucleus extract, 3 mM MgCl2, 0.4 mM each of ATP, UTP and CTP, 0.016 mM GTP, 16 μg/mL DNA template, 0.4 mCi/mL [α-^32P]GTP), followed by incubation at 30° C. for 1 hour. After completion of the reaction, the reaction solution was dropped on a DE81 filter, and the filter was then washed with 5% Na2HPO4 solution 3 times for 30 minutes, and then with distilled water once for 1 minute. The filter was dried, and scintillation cocktail was added thereto. The radioactivity was determined using a liquid scintillation counter. The measurement value was given as a 50% inhibition concentration, providing that a group in which no test compounds were added was defined as 100%.

The mark [7] stands for this setting: NS5B produced in Escherichia coli, 30° C., 2 hours, read-out: 50% inhibition concentration.

Read-outs that look alike come from different tables or passages of the source.

The inhibition is the relative decrease from the control value, in per cent.

Take `NC(=O)c1ncn([C@@H]2O[C@H](COP(=O)(O)O)[C@@H](O)[C@H]2O)n1` [Control compound, Ribavirin monophosphate, reference compound]: the IC50 in assay [1] turned out to be 1900 nM. In the case of `CC(C)(C)C(=O)SCCOP(=O)(OCCSC(=O)C(C)(C)C)OC[C@H]1O[C@@H](n2cc(Cl)nc(C(N)=O)c2=O)[C@H](O)[C@@H]1O` [Example 4, 2,2-dimethyl-thiopropionic acid S-(2-{[(2R,3S,4R,5R)-5-(3-carbamoyl-5-chloro-2-oxo-2H-pyrazine-1-yl)-3,4-dihydroxy-tetrahydro-furan-2-ylmethoxy]-[2-(2,2-dimethyl-propionylsulfanyl)-ethoxy]-phosphoryloxy]-ethyl) ester], the inhibition at 100 µg/mL in assay [2] worked out at 68%. For the compound `CC(C)(C)C(=O)OCOP(=O)(OCOC(=O)C(C)(C)C)OC[C@H]1O[C@@H](n2ccnc(C(N)=O)c2=O)[C@H](O)[C@@H]1O` [Example 6, 2,2-dimethyl-propionic acid[(2R,3S,4R,5R)-5-(3-carbamoyl-2-oxo-2H-pyrazine-1-yl)-3,4-dihydroxy-tetrahydro-furan-2-ylmethoxy]-(2,2-dimethyl-propionyloxymethoxy)-phosphoryloxymethyl ester], the figures for the inhibition at 100 µg/mL in assay [2] and in assay [3] were 57% and 100%, respectively. Take `Cc1cn([C@@H]2O[C@H](CO)[C@@H](O)[C@H]2O)c(=O)c(C(N)=O)n1` [Example 11, 4-[(2R,3R,4S,5R)-3,4-dihydroxy-5-(hydroxymethyl)tetrahydro-2-furanyl]-6-methyl-3-oxo-3,4-dihydro-2-pyrazinecarboxamide]: the inhibition at 100 µg/mL in assay [3] is 24%. The same measure, in the same setting: to `CC(=O)OC[C@H]1O[C@@H](n2ccnc(C(N)=O)c2=O)[C@H](OC(C)=O)[C@@H]1OC(C)=O` [Example 22, (2R,3R,4R,5R)-4-(acetyloxy)-2-[(acetyloxy)methyl]-5-[3-(aminocarbonyl)-2-oxo-1(2H)-pyrazinyl]tetrahydro-3-furanyl acetate] belongs 33%; to `CC(=O)OC[C@H]1O[C@@H](n2cc(F)nc(C(N)=O)c2=O)[C@H](OC(C)=O)[C@@H]1OC(C)=O` [Example 31, (2R,3R,4R, 5R)-4-(acetyloxy)-2-[(acetyloxy)methyl]-5-[3-(aminocarbonyl)-5-fluoro-2-oxo-1(2H)-pyrazinyl] tetrahydro-3-furanyl acetate], 44%. On to `NC(=O)c1nc(F)cn([C@@H]2O[C@H](CO)[C@@H](O)[C@H]2O)c1=O` [Example 32, 4-[(2R,3R,4S,5R)-3,4-dihydroxy-5-(hydroxymethyl)tetrahydro-2-furanyl]-6-fluoro-3-oxo-3,4-dihydro-2-pyrazinecarboxamide], for which the inhibition at 100 µg/mL in assay [2] and in assay [3] was 100% each time. Consider `NC(=O)c1nc(F)cn([C@@H]2O[C@H](COP(=O)(O)O)[C@@H](O)[C@H]2O)c1=O` [Example 37, [(2R,3S,4R,5R)-5-[3-(aminocarbonyl)-5-fluoro-2-oxo-1(2H)-pyrazinyl]-3,4-dihydroxytetrahydro-2-furanyl]methyl phosphate], for which, in assay [1], the IC50 was determined as 740000 nM. Take `NC(=O)c1nc(Cl)cn([C@@H]2O[C@H](CO)[C@@H](O)[C@H]2O)c1=O` [Reference Example 7, 6-chloro-4-[(2R,3R,4S,5R)-3,4-dihydroxy-5-(hydroxymethyl)tetrahydro-2-furanyl]-3-oxo-3,4-dihydro-2-pyrazinecarboxamide]: the inhibition at 100 µg/mL in assay [3] was determined as 42%. On to `CC(=O)O[C@@H]1[C@H](OC(C)=O)[C@@H](CO)O[C@H]1n1cc(F)nc(C(N)=O)c1=O` [Reference Example 12, (2R,3R,4R,5R)-4-(acetyloxy)-2-[3-(aminocarbonyl)-5-fluoro-2-oxo-1(2H)-pyrazinyl]-5-(hydroxymethyl)tetrahydro-3-furanyl acetate], for which the inhibition at 100 µg/mL in assay [3] was found to be 78%. Regarding `NC(=O)c1nc(F)cn([C@@H]2O[C@H](COP(=O)(O)OP(=O)(O)OP(=O)(O)O)[C@@H](O)[C@H]2O)c1=O` [Reference Example 16, [[2R,3S,4R,5R]-5-[3-(aminocarbonyl)-5-fluoro-2-oxo-1(2H)-pyrazinyl]-3,4-dihydroxytetrahydro-2-furanyl]methyl triphosphate], the IC50 in assay [4] was found to be 140 nM; in assay [5] (setting [7]), 750 nM. Regarding `NC(=O)c1nc(Cl)cn([C@@H]2O[C@H](COP(=O)(O)OP(=O)(O)OP(=O)(O)O)[C@@H](O)[C@H]2O)c1=O` [Reference Example 17, {(2R,3S,4R,5R)-5-[3-(aminocarbonyl)-5-chloro-2-oxo-1(2H)-pyrazinyl]-3,4-dihydroxytetrahydro-2-furanyl}methyl triphosphate], the IC50 amounted to 330 nM in assay [4] and 2700 nM in assay [5] (setting [7]). For `NC(=O)c1nccn([C@@H]2O[C@H](COP(=O)(O)OP(=O)(O)OP(=O)(O)O)[C@@H](O)[C@H]2O)c1=O` [Reference Example 22, {(2R,3S,4R,5R)-5-[3-(aminocarbonyl)-2-oxo-1(2H)-pyrazinyl]-3,4-dihydroxytetrahydro-2-furanyl} methyl triphosphate], the figures for the IC50 in assay [6], in assay [4] and in assay [5] (setting [7]) were above 200000 nM, 76 nM and 88 nM, respectively.

For `Cc1cn([C@@H]2O[C@H](COP(=O)(O)OP(=O)(O)OP(=O)(O)O)[C@@H](O)[C@H]2O)c(=O)c(C(N)=O)n1` [Reference Example 23, {(2R,3S,4R,5R)-5-[3-(aminocarbonyl)-5-methyl-2-oxo-1(2H)-pyrazinyl]-3,4-dihydroxytetrahydro-2-furanyl}methyl triphosphate], the IC50 in assay [4] was found to be 250 nM; in assay [5], 2200 nM.

Consider `NC(=O)c1nccn([C@@H]2O[C@H](COP(=O)(O)O)[C@@H](O)[C@H]2O)c1=O` [Reference Example 30, {(2R,3S,4R,5R)-5-[3-(aminocarbonyl)-2-oxo-1(2H)-pyrazinyl]-3,4-dihydroxytetrahydro-2-furanyl}methyl phosphate], for which, in assay [1], the IC50 came out at 980000 nM.

The values above are taken from US20040235761A1, “Novel virus proliferaton inhibition/virucidal method and novel pyradine nucleotide/pyradine nucleoside analogue” (priority 2001, published 2004).
